For two substances, Ki results are on record in US12398097B2, “WDR5-MYC inhibitors” (Vanderbilt University, priority 2019, dated 2025).

What is called Ki is the equilibrium dissociation constant of an inhibitor or competing ligand from its target. A low value points to higher affinity.

The assay has as its target WDR5 (Homo sapiens, UniProt P61964). In words: Competition-based fluorescence polarization anisotropy assay. The settings on record: binding to WDR5; displacement of FITC-labeled small molecule probe (analogous to Example J2 or HCH-25) or peptide probe FITC-AHx-SEEEIDVVSV; pH 6.0; Ki converted from IC50. Summed up:
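Ki values derive from displacement of either a fluorescent small-molecule probe or a FITC-peptide probe from WDR5, monitored by fluorescence polarization. Assay run at pH 6.0 in 200 mM phosphate with 300 mM NaCl, 0.5 mM TCEP and 0.1% Chaps.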
(Polarisation of emitted light reports the rotation of a fluorescent probe.)

Substance “Methyl 4-chloro-2-(N-(5-chloro-2-hydroxy-3-nitrophenyl)sulfamoyl)benzoate [NE4]” yielded a Ki of 1810 nM.
On to “Methyl 4-chloro-2-(N-(5-chloro-2-hydroxy-3-nitrophenyl)sulfamoyl)benzoate [NE5]”, for which affinity was put at a Ki of 460 nM.
